Laboratory results as given in US9708334B2, “Substituted 2,4,5,6-tetrahydropyrrolo[3,4-c]pyrazole and 4,5,6,7-tetrahydro-2H-pyrazolo[4,3-c]pyridine compounds as GlyT1 inhibitors” (DART NEUROSCIENCE (CAYMAN) LTD., priority 2014, dated 2017).

Biological target: T1, GlyT1 (Homo sapiens, UniProt P48067)
T1 construct: expressed in transfected cells
T1 sequence (P48067 1-706): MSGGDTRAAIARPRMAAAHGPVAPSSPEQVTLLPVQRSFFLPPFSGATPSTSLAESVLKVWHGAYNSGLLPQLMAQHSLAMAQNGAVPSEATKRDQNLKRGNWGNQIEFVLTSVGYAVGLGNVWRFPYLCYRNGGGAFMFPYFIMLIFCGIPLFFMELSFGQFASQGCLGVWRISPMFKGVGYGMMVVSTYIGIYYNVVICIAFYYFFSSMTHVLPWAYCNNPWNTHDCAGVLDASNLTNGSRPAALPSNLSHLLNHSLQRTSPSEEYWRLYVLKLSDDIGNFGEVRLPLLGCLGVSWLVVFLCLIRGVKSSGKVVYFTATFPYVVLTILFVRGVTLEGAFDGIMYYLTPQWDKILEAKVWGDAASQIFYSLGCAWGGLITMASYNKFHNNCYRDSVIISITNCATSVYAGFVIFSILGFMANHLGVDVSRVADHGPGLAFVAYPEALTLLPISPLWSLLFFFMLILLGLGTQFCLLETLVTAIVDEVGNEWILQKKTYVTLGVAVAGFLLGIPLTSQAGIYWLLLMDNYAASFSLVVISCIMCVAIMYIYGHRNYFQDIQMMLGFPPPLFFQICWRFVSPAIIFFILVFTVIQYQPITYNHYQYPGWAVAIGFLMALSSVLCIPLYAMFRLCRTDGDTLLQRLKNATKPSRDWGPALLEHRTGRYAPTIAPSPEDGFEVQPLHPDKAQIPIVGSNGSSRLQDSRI
Experiment: Glycine Transporter 1 (GlyT1) uptake assay, scintillation proximity assay of [14C]-glycine uptake
Assay type: cell-based
Conditions: SPA, four parameter logistic fit, read-out: GlyT1 (pIC50) (converted)
Procedure, shortened: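 [14C]-glycine uptake read by scintillation proximity on a plate counter. IC50 from four-parameter logistic fit of dose-response data.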

SMILES	IC50 [nM]
CC(Oc1ccc(N2CCOC2=O)cc1C(=O)N1CCc2nn(-c3ccccc3)cc2C1)C(F)(F)F (stereo not shown) [Example 172, 3-(3-{2-Phenyl-2H 4H 5H 6H 7H-pyrazolo[4,3-c]pyridine-5-carbonyl}-4-[(1 1 1-trifluoropropan-2-yl)oxy]phenyl)-1 3-oxazolidin-2-one]	1000 to 10000
COc1c(C#N)ccc(OC(C)C(F)(F)F)c1C(=O)N1CCc2nn(-c3ccccc3)cc2C1 (stereo not shown) [Example 176, 2-Methoxy-3-{2-phenyl-2H 4H 5H 6H 7H-pyrazolo[4,3-c]pyridine-5-carbonyl}-4-[(1 1 1-trifluoropropan-2-yl)oxy]benzonitrile]	< 100
CCOc1c2c(nn1-c1ccc(F)cc1)CCN(C(=O)c1c(OC(C)C(F)(F)F)ccc(C#N)c1Cl)C2 (stereo not shown) [Example 184, 2-Chloro-3-[3-ethoxy-2-(4-fluorophenyl)-2H 4H 5H 6H 7H-pyrazolo[4,3-c]pyridine-5-carbonyl]-4-[(1 1 1-trifluoropropan-2-yl)oxy]benzonitrile]	1000 to 10000
CS(=O)(=O)c1ccc(OCC(F)(F)F)c(C(=O)N2Cc3cn(-c4ccc(F)cc4)nc3C2)c1 [Example 103, 2-(4-Fluorophenyl)-5-[5-methanesulfonyl-2-(2 2 2-trifluoroethoxy)benzoyl]-2H 4H 5H 6H-pyrrolo[3,4-c]pyrazole]	< 100
N#Cc1ccc(N2CCOCC2)c(C(=O)N2CCc3nn(-c4ccccc4)cc3C2)c1Cl [Example 505, 2-Chloro-4-(morpholin-4-yl)-3-{2-phenyl-2H 4H 5H 6H 7H-pyrazolo[4,3-c]pyridine-5-carbonyl}benzonitrile]	1000 to 10000
Cc1ccc(F)c(-n2cc3c(n2)CN(C(=O)c2cc(S(C)(=O)=O)ccc2N2CCC(F)(F)CC2)C3)c1 [Example 124, 4 4-Difluoro-1-{2-[2-(2-fluoro-5-methylphenyl)-2H 4H 5H 6H-pyrrolo[3,4-c]pyrazole-5-carbonyl]-4-methanesulfonylphenyl}piperidine]	< 100
C[C@H](Oc1ccc(C#N)c(Cl)c1C(=O)N1Cc2cn(-c3cccc(F)c3)nc2C1)C(F)(F)F [Example 267, 2-Chloro-3-[2-(3-fluorophenyl)-2H 4H 5H 6H-pyrrolo[3,4-c]pyrazole-5-carbonyl]-4-{[(2S)-1 1 1-trifluoropropan-2-yl]oxy}benzonitrile]	< 100
CS(=O)(=O)c1ccc(N2CCCCC2)c(C(=O)N2Cc3cn(-c4cncc(F)c4)nc3C2)c1 [Example 116, 3-Fluoro-5-{5-[5-methanesulfonyl-2-(piperidin-1-yl)benzoyl]-2H 4H 5H 6H-pyrrolo[3,4-c]pyrazol-2-yl}pyridine]	< 100
CCS(=O)(=O)c1ccc(OC(C)C)c(C(=O)N2Cc3cn(-c4cccc(C)c4)nc3C2)c1 [Example 83, 5-[5-(Ethanesulfonyl)-2-(propan-2-yloxy)benzoyl]-2-(3-methylphenyl)-2H 4H 5H 6H-pyrrolo[3,4-c]pyrazole]	< 100
COc1c(C#N)ccc(O[C@@H](C)C(F)(F)F)c1C(=O)N1Cc2cn(-c3ccccn3)nc2C1 [Example 263, 2-Methoxy-3-[2-(pyridin-2-yl)-2H 4H 5H 6H-pyrrolo[3,4-c]pyrazole-5-carbonyl]-4-{[(2S)-1 1 1-trifluoropropan-2-yl]oxy}benzonitrile]	< 100
CCS(=O)(=O)c1ccc(O[C@@H](C)C(F)(F)F)c(C(=O)N2Cc3cn(-c4cccc(F)c4Cl)nc3C2)c1 [Example 151, 2-(2-Chloro-3-fluorophenyl)-5-[5-(ethanesulfonyl)-2-{[(2S)-1 1 1-trifluoropropan-2-yl]oxy}benzoyl]-2H 4H 5H 6H-pyrrolo[3,4-c]pyrazole]	< 100
Cc1cccc(-n2cc3c(n2)CN(C(=O)c2cc(S(=O)(=O)C(C)C)ccc2OC(C)C)C3)c1 [Example 96, 2-(3-Methylphenyl)-5-[2-(propan-2-yloxy)-5-(propane-2-sulfonyl)benzoyl]-2H 4H 5H 6H-pyrrolo[3,4-c]pyrazole]	1000 to 10000
N#Cc1ccc(OCC(F)(F)F)c(C(=O)N2CCc3nn(-c4ccncc4)cc3C2)c1Cl [Example 155, 2-Chloro-3-[2-(pyridin-4-yl)-2H 4H 5H 6H 7H-pyrazolo[4,3-c]pyridine-5-carbonyl]-4-(2 2 2-trifluoroethoxy)benzonitrile]	100 to 1000
CS(=O)(=O)c1ccc(-c2cccc(F)c2)c(C(=O)N2Cc3cn(-c4cncc(F)c4)nc3C2)c1 [Example 108, 3-Fluoro-5-{5-[2-(3-fluorophenyl)-5-methanesulfonylbenzoyl]-2H 4H 5H 6H-pyrrolo[3,4-c]pyrazol-2-yl}pyridine]	< 100
CC(C)S(=O)(=O)c1ccc(O[C@@H](C)C(F)(F)F)c(C(=O)N2Cc3cn(-c4ccccc4)nc3C2)c1 [Example 90, 2-Phenyl-5-[5-(propane-2-sulfonyl)-2-{[(2S)-1 1 1-trifluoropropan-2-yl]oxy}benzoyl]-2H 4H 5H 6H-pyrrolo[3,4-c]pyrazole]	100 to 1000

Results, then the molecule that gave them:

IC50 [nM]	SMILES
< 100	Cc1ccnc(-n2cc3c(n2)CN(C(=O)c2c(O[C@@H](C)C(F)(F)F)ccc(C#N)c2Cl)C3)c1 [Example 273, 2-Chloro-3-[2-(4-methylpyridin-2-yl)-2H 4H 5H 6H-pyrrolo[3,4-c]pyrazole-5-carbonyl]-4-{[(2S)-1 1 1-trifluoropropan-2-yl]oxy}benzonitrile]
< 100	COc1c(C#N)ccc(OCC(F)F)c1C(=O)N1Cc2cn(-c3ccc(F)cc3)nc2C1 [Example 520, 4-(2 2-Difluoroethoxy)-3-[2-(4-fluorophenyl)-2H 4H 5H 6H-pyrrolo[3,4-c]pyrazole-5-carbonyl]-2-methoxybenzonitrile]
100 to 1000	C[C@H](Oc1ccc(C#N)cc1C(=O)N1Cc2cn(CC3CC3(F)F)nc2C1)C(F)(F)F (stereo partly drawn) [Example 457, 3-{2-[(2 2-Difluorocyclopropyl)methyl]-2H 4H 5H 6H-pyrrolo[3,4-c]pyrazole-5-carbonyl}-4-{[(2S)-1 1 1-trifluoropropan-2-yl]oxy}benzonitrile]
1000 to 10000	N#Cc1ccc(OCC2CC2)c(C(=O)N2CCc3nn(-c4ccccc4)cc3C2)c1Cl [Example 504, 2-Chloro-4-(cyclopropylmethoxy)-3-{2-phenyl-2H 4H 5H 6H 7H-pyrazolo[4,3-c]pyridine-5-carbonyl}benzonitrile]
< 100	CCS(=O)(=O)c1ccc(N2CCC(F)(F)CC2)c(C(=O)N2Cc3cn(CC4CCC4)nc3C2)c1 [Example 428, 1-{2-[2-(Cyclobutylmethyl)-2H 4H 5H 6H-pyrrolo[3,4-c]pyrazole-5-carbonyl]-4-(ethanesulfonyl)phenyl}-4 4-difluoropiperidine]
< 100	CS(=O)(=O)c1ccc(-c2cccc(F)c2)c(C(=O)N2Cc3cn(CC4CC(F)(F)C4)nc3C2)c1 [Example 464, 2-[(3 3-Difluorocyclobutyl)methyl]-5-[2-(3-fluorophenyl)-5-methanesulfonylbenzoyl]-2H 4H 5H 6H-pyrrolo[3,4-c]pyrazole]
100 to 1000	Cc1cccnc1-n1cc2c(n1)CN(C(=O)c1c(O[C@@H](C)C(F)(F)F)ccc(C#N)c1Cl)C2 [Example 271, 2-Chloro-3-[2-(3-methylpyridin-2-yl)-2H 4H 5H 6H-pyrrolo[3,4-c]pyrazole-5-carbonyl]-4-{[(2S)-1 1 1-trifluoropropan-2-yl]oxy}benzonitrile]
100 to 1000	CC1(COc2ccc(S(C)(=O)=O)cc2C(=O)N2Cc3cn(-c4cc(Cl)ccc4F)nc3C2)COC1 [Example 439, 2-(5-Chloro-2-fluorophenyl)-5-{5-methanesulfonyl-2-[(3-methyloxetan-3-yl)methoxy]benzoyl}-2H 4H 5H 6H-pyrrolo[3,4-c]pyrazole]
100 to 1000	CC(C)Oc1ccc(C#N)cc1C(=O)N1Cc2cn(-c3ccnnc3)nc2C1 [Example 422, 4-(Propan-2-yloxy)-3-[2-(pyridazin-4-yl)-2H 4H 5H 6H-pyrrolo[3,4-c]pyrazole-5-carbonyl]benzonitrile]
100 to 1000	Cc1ccnc(-n2cc3c(n2)CN(C(=O)c2cc(C#N)ccc2O[C@@H](C)C(F)(F)F)C3)c1 [Example 347, 3-[2-(4-Methylpyridin-2-yl)-2H 4H 5H 6H-pyrrolo[3,4-c]pyrazole-5-carbonyl]-4-{[(2S)-1 1 1-trifluoropropan-2-yl]oxy}benzonitrile]
< 100	CCS(=O)(=O)c1ccc(-c2cccc(F)c2)c(C(=O)N2Cc3cn(-c4ccnc(C)c4)nc3C2)c1 [Example 568]
100 to 1000	N#Cc1ccc(OCC(F)(F)F)c(C(=O)N2Cc3cn(-c4ccc(F)cc4)nc3C2)c1 [Example 528, 3-[2-(4-Fluorophenyl)-2H 4H 5H 6H-pyrrolo[3,4-c]pyrazole-5-carbonyl]-4-(2 2 2-trifluoroethoxy)benzonitrile]
< 100	COc1cc(-n2cc3c(n2)CN(C(=O)c2c(O[C@@H](C)C(F)(F)F)ccc(C#N)c2OC)C3)ccn1 [Example 277, 2-Methoxy-3-[2-(2-methoxypyridin-4-yl)-2H 4H 5H 6H-pyrrolo[3,4-c]pyrazole-5-carbonyl]-4-{[(2S)-1 1 1-trifluoropropan-2-yl]oxy}benzonitrile]
